These results are taken from patent US20260272888A1, “WOUND TREATMENT COMPOSITION” (OTSUKA PHARMACEUTICAL CO., LTD., priority 2022, published 2026).

The test system of assay [1] is db/db mice. Put plainly: wound model using diabetic (db/db) mouse, circular defect wounds of the back skin. It is filed as in vivo. As to conditions: for healing promoting action as compared with the vehicle administration group (area of defect portions): ointment applied to defect wounds once daily for 10 days, compound A groups 1%, 2%, p<0.01 for compound A, N=6; for course of the area of the defect portions (start of healing): ointment once daily for 10 days, compound A 1%, 2% groups, crisaborole increase on second day in the 2% group, vehicle decreased from the fourth day. Here is the method:
The compound A or crisaborole was administered to db/db mice, which are spontaneously diabetic models, for 10 days, and the influence on wound healing was examined by analyzing the wound area.
Before start of the test, the db/db mice were grouped using the HbA1c blood concentration as an index, and shaved from the back to the abdomen. On the test start day, the back skin was punched using a biopsy punch (φ6 mm) under isoflurane anesthesia, and thus two circular defect wounds were prepared. The defect portions were photographed, and then an ointment preparation (vehicle [30% medium chain fatty acid triglyceride-containing white petrolatum], compound A or crisaborole) as a test substance was applied to the defect portions and covered with a dressing (Tegaderm, 3M). After the day following the preparation of the defect wounds, removal of the dressing, photographing of the defect portions (once every two days), administration of the test substance, and covering with a dressing were repeated (once daily for 10 days).

For assay [2], the system named is SD rat. Description: rat corneal epithelial defect (corneal wound) model. As to conditions: for wound area healing rate on Day 2: SD rat corneal epithelial defect, 1% ointment to the eye four times a day, n=5; for healing of the corneal defect wound as compared with the vehicle administration group: n=5, t-test (compound A p<0.05; crisaborole n.s.). It is filed as in vivo. An excerpt: Using a male rat (SD rat), a corneal wound was induced as follows. On the day before the start of the test, rats were grouped using a stratified random sampling method based on the body weight. Under isoflurane anesthesia, each conventional rat was anesthetized with a Benoxil ophthalmic solution to the surface of the eye, and then a nonwoven fabric (3 mm in diameter) with 1-heptanol immersed was placed on the central portion of the cornea and allowed to stand for 30 seconds. Thereafter, the surface of the eye was washed with physiological saline, and the corneal epithelium was scratched with a cotton swab and thus carefully peeled to prepare a corneal defect. A 0.5% methylene blue solution was instilled into the eye, and the corneal epithelial defect portion was washed with physiological saline and then photographed, and then an ointment preparation (base alone, 1% compound A-containing ointment, or 1% crisaborole-containing ointment) as a test substance was administered to the eye four times a day (around 8:00, 11:00, 14:00, and 17:00) for three days. After the day following the preparation of the defect wound, photographing of the defect portion and administration of the test substance were repeated.

For assay [3], the system named is SD rat. Put plainly: rat oral ulcer model induced by cauterization. It is filed as in vivo. As to conditions: for oral ulcer area on Day 8: 1 mass % ointment 0.05 mL twice a day for 5 days from Day 3, Mean±S.E., n=6, vehicle 20.4±2.3 mm^2; for reduction in the oral ulcer area as compared with the vehicle administration group: 1 mass % ointment twice a day for 5 days, Day 8, n=6, t-test (compound A p<0.05; crisaborole n.s.). From the text:
Using a male rat (SD rat), an oral ulcer was initiated by cauterization as follows. That is, conventional rats were anesthetized by isoflurane inhalation anesthesia and then placed on their back, and while the upper jaw and the lower jaw of each rat were opened using a rib retractor to take a view, a monopolar having a tip diameter of […] was applied to the central portion of the left oral mucosa, and the portion was cauterized in a circular shape (diameter: 3 to 4 mm) for about 10 to 20 seconds at a set output of 20 to induce an oral ulcer. After the cauterization, the rat was returned to a breeding cage and naturally awakened.
The day of oral ulcer induction was defined as the start day (Day 0). Two days after the oral ulcer induction (Day 2), the rats were grouped using a stratified random sampling method based on the body weight. From 3 days after the initiation of an oral ulcer by cauterization (Day 3), an ointment preparation containing 1 mass % of a test substance or an ointment base alone was orally administered at a dose of 0.05 mL twice a day (around 8:00 and 16:00) for 5 days. (As the compound A 1%, Moizerto (registered trademark) ointment 1% was used. The crisaborole 1% was prepared using a formula in which Moizerto (registered trademark) ointment 1% as the compound A was replaced by crisaborole.) Specifically, a rat anesthetized by isoflurane inhalation was laid down in a left side position, and the ointment preparation was administered to the left cheek where an ulcer was prepared in a state where the oral cavity was opened using tweezers or a rib retractor.

Assay [4] relates to normal human epidermal keratinocyte (NHEK). Description: scratch assay of epidermic cells with compound solution or conditioned medium from skin fibroblasts. To be noted: conditioned medium from normal human dermal fibroblasts cultured 24 hours with compound, 18 hours culture. It is filed as cell-based. Here is the method: The influence of the compound A on epidermic cells via a skin fibroblast was evaluated. As the epidermic cell and the skin fibroblast used in the evaluation system, a normal human epidermal keratinocyte (NHEK, Kurabo Industries Ltd.) and a normal human dermal fibroblast (NEDF, Kurabo Industries Ltd.) were used. As a reference compound, dexamethasone, which is an anti-inflammatory drug, was used.
Skin fibroblasts (1×10^5 cells/mL) suspended in Dulbecco's Modified Eagle Medium (DMEM) containing 10% (v/v) fetal bovine serum (FBS) were seeded at 1 mL/well in a 12 well plate coated with type I collagen, and cultured for 48 hours. After removal of the culture medium and washing with phosphate buffered saline (PBS), the compound solution was added. As the compound solution, a solution was used that was prepared by mixing dimethyl sulfoxide or a compound (the compound A or dexamethasone) dissolved in dimethyl sulfoxide with a normal human epidermal keratinocyte basal medium (HuMedia-KB2, Kurabo Industries Ltd.) (the final concentration of dimethyl sulfoxide was 0.1% [v/v]). After completion of the culture for 24 hours, the conditioned medium was collected.
Epidermic cells (6×10^5 cells/mL) suspended in HuMedia-KB2 were seeded at 100 μL/well in ImageLock 96-well Plate (Sartorius AG) coated with type I collagen, and cultured for 4 hours. […]

The subject of assay [5] is normal human corneal epithelial cell (HCEC-2). Description: scratch assay of corneal epithelial cells with compound solution or conditioned medium from keratocytes. It is filed as cell-based. To be noted: HCEC-2 scratch wound, conditioned medium from normal human keratocytes cultured 24 hours with compound, 20 hours culture. Here is the method:
The influence of the compound A on corneal epithelial cells via a keratocyte was evaluated. As the corneal epithelial cell and the keratocyte used in the evaluation system, a normal human corneal epithelial cell (HCEC-2, Kurabo Industries Ltd.) and a normal human keratocyte (EK, Cosmo Bio Co., Ltd.) were used.
Keratocytes (2×10^5 cells/mL) suspended in a fibroblast culture medium (Fibroblast Medium, Cosmo Bio Co., Ltd.) were seeded at 1 mL/well in a 12 well plate coated with poly-L-lysine, and cultured overnight. After removal of the culture medium and washing with normal human corneal epithelial cell basal medium (OcuLife BM, Kurabo Industries Ltd.), the compound solution was added. As the compound solution, a solution was used that was prepared by mixing dimethyl sulfoxide or the compound A dissolved in dimethyl sulfoxide with OcuLife BM (the final concentration of dimethyl sulfoxide was 0.1% [v/v]). After completion of the culture for 24 hours, the conditioned medium was collected.
Corneal epithelial cells (6×10^5 cells/mL) suspended in OcuLife BM were seeded at 100 μL/well in ImageLock 96-well Plate (Sartorius AG) coated with type I collagen, and cultured for 4 hours. Each well was scratched using a Wound Maker (trademark) tool (Sartorius AG) to prepare an initial scratch wound area in which no cells were present. […]

The test system of assay [6] is scratch model. As to conditions: NPL 4; cited from earlier work.
The test system of assay [7] is human keratinocytes. To be noted: NPL 4; cited from earlier work.
The mark [8] stands for this setting: SD rat, 1% ointment four times a day.

Turning to `N#Cc1ccc(Oc2ccc3c(c2)COB3O)cc1` [crisaborole, reference compound], in assay [1], the “healing promoting action as compared with the vehicle administration group (area of defect portions)” value is given as “a significant healing promoting action was not observed”; the “course of the area of the defect portions (start of healing)” value was “increased on the second day (in the 2% group) and then gradually decreased from the fourth day”. In assay [2], the “wound area healing rate on Day 2” value turned out to be 81.6%. The “healing of the corneal defect wound as compared with the vehicle administration group” value in assay [2] (setting [8]) was “healing was not completed”. Also, in assay [3], the “oral ulcer area on Day 8” value was determined as 18.3±2.7 mm^2 and the “reduction in the oral ulcer area as compared with the vehicle administration group” value is “significant reduction in the oral ulcer area was not observed”.
With `CCOc1ccccc1C(=O)NCc1coc(-c2ccc(OC(F)F)c(OC(C)C)c2)n1` [compound A, N-({2-[4-(difluoromethoxy)-3-(propan-2-yloxy)phenyl]-1,3-oxazol-4-yl}methyl)-2-ethoxybenzamide], in assay [4], the “migration of the epidermic cells (wound confluence)” value is reported as “promoted migration of the epidermic cells via the skin fibroblasts”. Moreover, in assay [1], the “healing promoting action as compared with the vehicle administration group (area of defect portions)” value was “a healing promoting action was confirmed” and the “course of the area of the defect portions (start of healing)” value is listed as “rapidly decreased from the second day”. The “wound area healing rate on Day 2” value in assay [2] was determined as 100%. Besides, in assay [2] (setting [8]), the “healing of the corneal defect wound as compared with the vehicle administration group” value was “a significant healing promoting action was confirmed”. Also, in assay [2] (SD rat, 1% ointment four times a day, vehicle apparent healing started on Day 2), the “time after preparation of the defect wound from which the defect portion area rapidly decreased” value stood at 8 h. In assay [3], the “oral ulcer area on Day 8” value amounted to 13.1±1.3 mm^2 and the “reduction in the oral ulcer area as compared with the vehicle administration group” value is “significant reduction in the oral ulcer area was observed”. The “migration of the corneal epithelial cells (wound confluence)” value in assay [5] is given as “promoted migration of the corneal epithelial cells via the keratocytes”.
Regarding `CS(=O)(=O)Nc1ccc(C(=O)O[C@@H](Cc2c(Cl)c[n+]([O-])cc2Cl)c2ccc(OC(F)F)c(OCC3CC3)c2)cc1OCC1CC1` [CHF6001], in assay [6], the “re-epithelialization in a scratch model after treatment” value was “re-epithelialization is decreased”. In addition, the “growth of human keratinocytes” value in assay [7] is “suppresses growth of human keratinocytes”.
